Experimental data as given in article PMC8478151 (European journal of pharmacology, 2021).
Where a name gives a salt, the structure may show the parent alone.

Target: α7 nicotinic acetylcholine receptor (Homo sapiens, UniProt P36544)
Assay type: cell-based

α7 nicotinic acetylcholine receptor, sequence (P36544 23-502): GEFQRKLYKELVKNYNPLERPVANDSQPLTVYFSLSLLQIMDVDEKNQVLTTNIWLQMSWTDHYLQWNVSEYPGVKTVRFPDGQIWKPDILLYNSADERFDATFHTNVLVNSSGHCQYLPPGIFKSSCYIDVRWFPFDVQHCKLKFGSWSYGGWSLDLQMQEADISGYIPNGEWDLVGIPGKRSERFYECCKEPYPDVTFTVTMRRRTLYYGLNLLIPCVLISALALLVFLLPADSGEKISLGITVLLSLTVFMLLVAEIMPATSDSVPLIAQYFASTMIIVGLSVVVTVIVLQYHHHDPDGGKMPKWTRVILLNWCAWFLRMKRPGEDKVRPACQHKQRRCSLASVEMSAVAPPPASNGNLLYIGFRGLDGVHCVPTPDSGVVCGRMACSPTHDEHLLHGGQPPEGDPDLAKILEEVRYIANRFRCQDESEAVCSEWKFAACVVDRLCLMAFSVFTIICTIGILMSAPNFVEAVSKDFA

Structure (SMILES): O=C(c1ccc(-c2cccc(C(F)(F)F)c2)o1)N1CCN2CCC1CC2 [NS6740, 1,4-diazabicyclo[3.2.2]nonan-4-yl(5-(3-(trifluoromethyl)-phenyl)-furan-2-yl)methanone hydrochloride]
- EC50: 420 nM
